Positions of bridges follow the written chain, without caps; N, C: chain ends. Non-standard residues stand in square brackets, D forms with d. Residues, ends and D or L forms follow the SMILES beside them. Phe(4-COOH) = N[C@@H](Cc1ccc(C(=O)O)cc1)C(=O)O; Trp(7-aza) = N[C@@H](Cc1c[nH]c2ncccc12)C(=O)O; 3Pal(6-NH2) = Nc1ccc(C[C@H](N)C(=O)O)cn1; Gly(N(CH2)3COOH) = O=C(O)CCCNCC(=O)O; NMeF = CN[C@@H](Cc1ccccc1)C(=O)O; 3Pal = N[C@@H](Cc1cccnc1)C(=O)O; 4Pal = N[C@@H](Cc1ccncc1)C(=O)O; NMeA = CN[C@@H](C)C(=O)O; Sar = CNCC(=O)O
Assays:
[1] = target: T1, GDF-11 (Homo sapiens, UniProt O95390); test: HepG2 reporter gene assay, Evaluation Procedure (2): 2-concentrations assay, GDF-11 inhibition; type: cell-based; details: GDF-11 10 ng/mL; for inhibition at 0.03 µM: HepG2, peptide 30nM, read-out: GDF11 Inhibition 30nM; for inhibition at 0.1 µM: HepG2, peptide 100nM, read-out: GDF11 Inhibition 100nM
T1 construct: purchased R&D systems 1958-GD-G8/CF
T1 sequence (O95390 299-407): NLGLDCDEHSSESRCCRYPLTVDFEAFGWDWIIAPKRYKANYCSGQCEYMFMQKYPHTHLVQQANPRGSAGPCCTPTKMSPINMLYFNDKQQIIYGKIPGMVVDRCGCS
Description: (§1) The pGL3(CAGA)12-luc plasmid, namely a pGL3 vector (E1751, Promega) having a luciferase gene inserted downstream of a promoter sequence with 12 CAGA repeats attached, was transfected into HepG2 cell line (HB-8065, ATCC). The culture of HepG2 cell line (HB-8065, ATCC) was performed as in the Evaluation Procedure (1).
(§2) Myostatin (788-G8/CF, R&D systems) or GDF-11 (1958-GD-G8/CF, R&D systems) was added at a final concentration of 10 ng/mL. […] At this time, blank wells, in which neither myostatin, GDF-11, nor each peptide was added, were also prepared and incubated in a CO2 incubator (37°C, 5% CO2) for 20 to 24 hours.
(§3) The medium containing the cells was removed, and a mixture containing PBS (14190144, Thermo) and a chromogenic substrate One-Glo Luciferase Assay System (E6120, Promega) at a ratio of 1:1 was added to each well at 100 µL/well. This was stirred with a plate shaker for 5 min and transferred to a 384-well plate (3570, Corning) at a volume of 20 µL/well.
(§4) The plate was centrifuged at 1,000 × g for 1 min and the luminescence signal (700 nm luminescence) was measured using a plate reader (Envision 2104, PerkinElmer). Based on the measurement results, the inhibition rate at each peptide concentration was calculated. […]

[2] = target: T2, Myostatin (Homo sapiens, UniProt O14793); test: HepG2 reporter gene assay, Evaluation Procedure (2): 2-concentrations assay, myostatin inhibition; type: cell-based; details: Myostatin 10 ng/mL, HepG2; for inhibition at 0.03 µM: peptide 30nM, read-out: Myostatin Inhibition 30nM; for inhibition at 0.1 µM: peptide 100nM, read-out: Myostatin Inhibition 100nM
T2 construct: active myostatin (also called mature myostatin) is a homodimer consisting of two C-terminal growth factor domains; purchased R&D systems 788-G8/CF
T2 sequence (O14793 267-375): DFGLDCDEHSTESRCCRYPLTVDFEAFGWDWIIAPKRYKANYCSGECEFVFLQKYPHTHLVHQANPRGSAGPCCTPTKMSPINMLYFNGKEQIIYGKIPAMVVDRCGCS
Description: as §1, §2, §3, §4

| SMILES | inhibition at 0.03 µM [1] | inhibition at 0.1 µM [1] | inhibition at 0.03 µM [2] | inhibition at 0.1 µM [2] |
| --- | --- | --- | --- | --- |
| CC[C@H](C)[C@@H]1NC(=O)[C@H](Cc2ccccc2)N(C)C(=O)[C@H](Cc2ccc(O)cc2)NC(=O)[C@H](Cc2c[nH]c3ccccc23)NC(=O)[C@H](C)NC(=O)CN(CCCC(=O)O)C(=O)CSC[C@H](C(N)=O)NC(=O)[C@H](Cc2ccccc2)N(C)C(=O)[C@H](C)N(C)C(=O)[C@H](CC(C)C)NC(=O)[C@H](Cc2ccccc2)N(C)C(=O)[C@H](CCCNC(=N)N)NC(=O)[C@H](Cc2ccncc2)NC(=O)[C@H](Cc2ccc(O)cc2)NC(=O)CN(C)C1=O [Myostatin_99_Variant_17] ({CH2CO}-[Gly(N(CH2)3COOH)]AWY[NMeF]I[Sar]Y[4Pal]R[NMeF]L[NMeA][NMeF][dC]-NH2; thioether N-15) | 0% | 14% | 37% | 72% |
| CC[C@H](C)[C@@H]1NC(=O)[C@H](Cc2ccccc2)N(C)C(=O)[C@H](Cc2ccc(O)cc2)NC(=O)[C@H](Cc2c[nH]c3ccccc23)NC(=O)[C@H](C)NC(=O)CN(CCCC(=O)O)C(=O)CSC[C@H](C(N)=O)NC(=O)[C@H](Cc2ccccc2)N(C)C(=O)[C@H](C)N(C)C(=O)[C@H](CC(C)C)NC(=O)[C@H](Cc2ccccc2)N(C)C(=O)[C@H](CCCNC(=N)N)NC(=O)[C@H](Cc2ccc(C(=O)O)cc2)NC(=O)[C@H](Cc2ccncc2)NC(=O)CN(C)C1=O [Myostatin_99_Variant_18] ({CH2CO}-[Gly(N(CH2)3COOH)]AWY[NMeF]I[Sar][4Pal][Phe(4-COOH)]R[NMeF]L[NMeA][NMeF][dC]-NH2; thioether N-15) | 0% | 0% | 56% | 80% |
| CC[C@H](C)[C@@H]1NC(=O)[C@H](Cc2ccccc2)N(C)C(=O)[C@H](Cc2ccc(O)cc2)NC(=O)[C@H](Cc2c[nH]c3ncccc23)NC(=O)[C@H](C)NC(=O)CN(CCCC(=O)O)C(=O)CSC[C@H](C(N)=O)NC(=O)[C@H](Cc2ccccc2)N(C)C(=O)[C@H](C)N(C)C(=O)[C@H](CC(C)C)NC(=O)[C@H](Cc2ccccc2)N(C)C(=O)[C@H](CCCNC(=N)N)NC(=O)[C@H](Cc2cccnc2)NC(=O)[C@H](Cc2ccccc2)NC(=O)CN(C)C1=O [Myostatin_99_Variant_22] ({CH2CO}-[Gly(N(CH2)3COOH)]A[Trp(7-aza)]Y[NMeF]I[Sar]F[3Pal]R[NMeF]L[NMeA][NMeF][dC]-NH2; thioether N-15) | 0% | 0% | 45% | 72% |
| CC[C@H](C)[C@@H]1NC(=O)[C@H](Cc2ccccc2)N(C)C(=O)[C@H](Cc2ccc(O)cc2)NC(=O)[C@H](Cc2c[nH]c3ccccc23)NC(=O)[C@H](C)NC(=O)CN(CCCC(=O)O)C(=O)CSC[C@H](C(N)=O)NC(=O)[C@H](Cc2ccccc2)N(C)C(=O)[C@H](C)N(C)C(=O)[C@H](CC(C)C)NC(=O)[C@H](Cc2ccccc2)N(C)C(=O)[C@H](CCCNC(=N)N)NC(=O)[C@H](Cc2cccnc2)NC(=O)[C@H](Cc2ccncc2)NC(=O)CN(C)C1=O [Myostatin_99_Variant_23] ({CH2CO}-[Gly(N(CH2)3COOH)]AWY[NMeF]I[Sar][4Pal][3Pal]R[NMeF]L[NMeA][NMeF][dC]-NH2; thioether N-15) | 0% | 0% | 32% | 71% |
| CC[C@H](C)[C@@H]1NC(=O)[C@H](Cc2ccccc2)N(C)C(=O)[C@H](Cc2ccc(N)nc2)NC(=O)[C@H](Cc2c[nH]c3ncccc23)NC(=O)[C@H](C)NC(=O)CN(CCCC(=O)O)C(=O)CSC[C@H](C(N)=O)NC(=O)[C@H](Cc2ccccc2)N(C)C(=O)[C@H](C)N(C)C(=O)[C@H](CC(C)C)NC(=O)[C@H](Cc2ccccc2)N(C)C(=O)[C@H](CCCNC(=N)N)NC(=O)[C@H](Cc2ccc(C(=O)O)cc2)NC(=O)[C@H](Cc2ccccc2)NC(=O)CN(C)C1=O [Myostatin_99_Variant_24] ({CH2CO}-[Gly(N(CH2)3COOH)]A[Trp(7-aza)][3Pal(6-NH2)][NMeF]I[Sar]F[Phe(4-COOH)]R[NMeF]L[NMeA][NMeF][dC]-NH2; thioether N-15) | 0% | 0% | 1% | 54% |
| CC[C@H](C)[C@@H]1NC(=O)[C@H](Cc2ccccc2)N(C)C(=O)[C@H](Cc2ccc(N)nc2)NC(=O)[C@H](Cc2c[nH]c3ccccc23)NC(=O)[C@H](C)NC(=O)CN(CCCC(=O)O)C(=O)CSC[C@H](C(N)=O)NC(=O)[C@H](Cc2ccccc2)N(C)C(=O)[C@H](C)N(C)C(=O)[C@H](CC(C)C)NC(=O)[C@H](Cc2ccccc2)N(C)C(=O)[C@H](CCCNC(=N)N)NC(=O)[C@H](Cc2ccc(C(=O)O)cc2)NC(=O)[C@H](Cc2ccncc2)NC(=O)CN(C)C1=O [Myostatin_99_Variant_25] ({CH2CO}-[Gly(N(CH2)3COOH)]AW[3Pal(6-NH2)][NMeF]I[Sar][4Pal][Phe(4-COOH)]R[NMeF]L[NMeA][NMeF][dC]-NH2; thioether N-15) | 0% | 0% | 20% | 50% |
| CC[C@H](C)[C@@H]1NC(=O)[C@H](Cc2ccccc2)N(C)C(=O)[C@H](Cc2ccc(N)nc2)NC(=O)[C@H](Cc2c[nH]c3ccccc23)NC(=O)[C@H](C)NC(=O)CN(CCCC(=O)O)C(=O)CSC[C@H](C(N)=O)NC(=O)[C@H](Cc2ccccc2)N(C)C(=O)[C@H](C)N(C)C(=O)[C@H](CC(C)C)NC(=O)[C@H](Cc2ccccc2)N(C)C(=O)[C@H](CCCNC(=N)N)NC(=O)[C@H](Cc2cccnc2)NC(=O)[C@H](Cc2ccccc2)NC(=O)CN(C)C1=O [Myostatin_99_Variant_26] ({CH2CO}-[Gly(N(CH2)3COOH)]AW[3Pal(6-NH2)][NMeF]I[Sar]F[3Pal]R[NMeF]L[NMeA][NMeF][dC]-NH2; thioether N-15) | 0% | 0% | 26% | 50% |

Next, values leading:

| inhibition at 0.03 µM [1] | inhibition at 0.1 µM [1] | inhibition at 0.03 µM [2] | inhibition at 0.1 µM [2] | SMILES |
| --- | --- | --- | --- | --- |
| 0% | 4% | 34% | 75% | CC[C@H](C)[C@@H]1NC(=O)[C@H](Cc2ccccc2)N(C)C(=O)[C@H](Cc2ccc(O)cc2)NC(=O)[C@H](Cc2c[nH]c3ccccc23)NC(=O)[C@H](C)NC(=O)CN(CCCC(=O)O)C(=O)CSC[C@H](C(N)=O)NC(=O)[C@H](Cc2ccccc2)N(C)C(=O)[C@H](C)N(C)C(=O)[C@H](CC(C)C)NC(=O)[C@H](Cc2ccccc2)N(C)C(=O)[C@H](CCCNC(=N)N)NC(=O)[C@H](Cc2cccnc2)NC(=O)[C@H](Cc2ccc(O)cc2)NC(=O)CN(C)C1=O [Myostatin_99_Variant_16] ({CH2CO}-[Gly(N(CH2)3COOH)]AWY[NMeF]I[Sar]Y[3Pal]R[NMeF]L[NMeA][NMeF][dC]-NH2; thioether N-15) |
| 0% | 0% | 62% | 89% | CC[C@H](C)[C@@H]1NC(=O)[C@H](Cc2ccccc2)N(C)C(=O)[C@H](Cc2ccc(O)cc2)NC(=O)[C@H](Cc2c[nH]c3ncccc23)NC(=O)[C@H](C)NC(=O)CN(CCCC(=O)O)C(=O)CSC[C@H](C(N)=O)NC(=O)[C@H](Cc2ccccc2)N(C)C(=O)[C@H](C)N(C)C(=O)[C@H](CC(C)C)NC(=O)[C@H](Cc2ccccc2)N(C)C(=O)[C@H](CCCNC(=N)N)NC(=O)[C@H](Cc2ccc(C(=O)O)cc2)NC(=O)[C@H](Cc2ccccc2)NC(=O)CN(C)C1=O [Myostatin_99_Variant_20] ({CH2CO}-[Gly(N(CH2)3COOH)]A[Trp(7-aza)]Y[NMeF]I[Sar]F[Phe(4-COOH)]R[NMeF]L[NMeA][NMeF][dC]-NH2; thioether N-15) |
| 0% | 0% | 40% | 76% | CC[C@H](C)[C@@H]1NC(=O)[C@H](Cc2ccccc2)N(C)C(=O)[C@H](Cc2ccc(O)cc2)NC(=O)[C@H](Cc2c[nH]c3ncccc23)NC(=O)[C@H](C)NC(=O)CN(CCCC(=O)O)C(=O)CSC[C@H](C(N)=O)NC(=O)[C@H](Cc2ccccc2)N(C)C(=O)[C@H](C)N(C)C(=O)[C@H](CC(C)C)NC(=O)[C@H](Cc2ccccc2)N(C)C(=O)[C@H](CCCNC(=N)N)NC(=O)[C@H](Cc2ccc(C(=O)O)cc2)NC(=O)[C@H](Cc2ccncc2)NC(=O)CN(C)C1=O [Myostatin_99_Variant_21] ({CH2CO}-[Gly(N(CH2)3COOH)]A[Trp(7-aza)]Y[NMeF]I[Sar][4Pal][Phe(4-COOH)]R[NMeF]L[NMeA][NMeF][dC]-NH2; thioether N-15) |

Reference: EP4786487A1, “PEPTIDE” (Peptidream Inc, priority 2023, dated 2025)
